# Reference: US8785488B2 (Exelixis Patent Company LLC, priority 2009, dated 2014)
# Biological target: T1, human TGR5 (h-TGR5) (Homo sapiens, UniProt Q8TDU6)
# T1 construct: expressed in transfected cells
# T1 sequence (Q8TDU6 1-330): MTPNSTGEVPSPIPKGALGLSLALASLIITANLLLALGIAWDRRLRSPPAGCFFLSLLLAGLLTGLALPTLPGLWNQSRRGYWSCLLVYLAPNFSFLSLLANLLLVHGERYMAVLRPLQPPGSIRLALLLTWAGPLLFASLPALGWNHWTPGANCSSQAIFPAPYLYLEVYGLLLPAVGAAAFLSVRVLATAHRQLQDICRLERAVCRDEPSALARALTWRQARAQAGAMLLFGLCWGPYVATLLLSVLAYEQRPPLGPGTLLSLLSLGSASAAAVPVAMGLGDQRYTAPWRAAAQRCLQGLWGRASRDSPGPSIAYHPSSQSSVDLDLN
# Test: TGR5/CRE-Luciferiase Assay (HEK 293 hTGR5/CRE-Luc cells)
# Assay type: cell-based
# Conditions: h-TGR5 CRE-Luc EC50, Table 1; read-out: CRE-Luc (EC50)
# How it was run: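 HEK293 cells stably carrying hTGR5 and a CRE-luciferase reporter were exposed to serially diluted compounds (diluted in DMEM with 5% DMSO) for 6 h. Cells were then lysed in luciferase buffer, luminescence was read, and EC50 values were derived from dose-response curves.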
row,EC50 [nM],SMILES
1,1000 to 10000,CC(C)(c1ccc(OCC(=O)O)cc1)c1cnc(SCc2c(F)cccc2Cl)n1-c1ccc(F)cc1 [[(4-{1-[2-{[(2-chloro-6-fluorophenyl)methyl]thio}-1-(4-fluorophenyl)-1H-imidazol-5-yl]-1-methylethyl}phenyl)oxy]acetic acid]
2,100 to 1000,CCOC(=O)c1cc(F)c(CSc2nc(C)c(C(C)(C)c3ccc(Cl)c(OC)c3)n2-c2ccc(F)cc2)c(Cl)c1 [ethyl 3-chloro-4-({[5-{1-[4-chloro-3-(methyloxy)phenyl]-1-methylethyl}-1-(4-fluorophenyl)-4-methyl-1H-imidazol-2-yl]thio}methyl)-5-fluorobenzoate]
3,100 to 1000,"COC(=O)c1cc(F)c(OCc2ncc(C(C)(C)c3ccc(Cl)c(Cl)c3)n2-c2ccc(F)cc2)c(Cl)c1 [methyl 3-chloro-4-[({5-[1-(3,4-dichlorophenyl)-1-methylethyl]-1-(4-fluorophenyl)-1H-imidazol-2-yl}methyl)oxy]-5-fluorobenzoate]"
4,100 to 1000,"CC(C)(c1ccc(Cl)c(Cl)c1)c1cnc(SCc2c(F)cccc2CO)n1-c1ccc(F)cc1 [{2-[({5-[1-(3,4-dichlorophenyl)-1-methylethyl]-1-(4-fluorophenyl)-1H-imidazol-2-yl}thio)methyl]-3-fluorophenyl}methanol]"
5,1000 to 10000,"CC(C)(c1ccc(Cl)c(Cl)c1)c1cnc(SCc2ccc(F)cc2CO)n1-c1ccc(F)cc1 [{2-[({5-[1-(3,4-dichlorophenyl)-1-methylethyl]-1-(4-fluorophenyl)-1H-imidazol-2-yl}thio)methyl]-5-fluorophenyl}methanol]"
6,100 to 1000,"CC(C)(c1ccc(Cl)c(Cl)c1)c1cnc(SCc2ccc(F)c(CO)c2)n1-c1ccc(F)cc1 [{5-[({5-[1-(3,4-dichlorophenyl)-1-methylethyl]-1-(4-fluorophenyl)-1H-imidazol-2-yl}thio)methyl]-2-fluorophenyl}methanol]"
7,1000 to 10000,"CC(C)(c1ccc(Cl)c(Cl)c1)c1cnc(SCc2ccc(F)cc2Cl)n1-c1ccc(F)c(OCC(=O)O)c1 [{[5-(2-{[(2-chloro-4-fluorophenyl)methyl]thio}-5-[1-(3,4-dichlorophenyl)-1-methylethyl]-1H-imidazol-1-yl)-2-fluorophenyl]oxy}acetic acid]"

# Biological target: T2, h-TGR5 (Homo sapiens, UniProt Q8TDU6)
# T2 construct: expressed in transfected cells
# T2 sequence (Q8TDU6 1-330): T1 sequence (Q8TDU6 1-330)
# Test: TGR5 cAMP Assay using Cisbio cAMP Dynamic2 htrf kit (hTGR5CRE-luc HEK 293 cells)
# Assay type: cell-based
# Conditions: h-TGR5 cAMP EC50, Table 1; read-out: cAMP (EC50)
# Description: Compounds were diluted in DPBS with 5% DMSO (8-point serial dilution by half logs) in a 96-well plate and 1 μL was transferred to a 384-well assay plate in quadruplicate. The d2-cAMP and anti-cAMP Ab-cryptate stock solution were prepared as per the instructions in the Cisbio™ (Bedford, Mass.) kit. […] Cells were adjusted to 0.44×10^6 cells/ml followed by addition of IBMX to a final concentration of 0.5 mM. The cells were then mixed with d2-cAMP solution (7.1 mL cells+100 ul d2-cAMP) and 4000 cells (9 μL) were transferred to each well of the 384-well assay plate. Cells without d2-cAMP were added to eight wells as a negative control. The plate was covered and incubated at room temp for 30 min. Then 10 μL of Ab-cryptate solution was added to each well of the assay plate and incubated for 1 hr. The plate was read on an EnVision™ plate reader (Perkin-Elmer, Waltham, Mass.) and the DeltaF value was calculated as per the instructions in the Cisbio™ kit.
# In the following tables, EC50 values determined according to the TGR5 cAMP Assay described herein (cAMP); EC50 values determined according to the TGR5/CRE-Luciferiase Assay described herein (CRE-Luc). […] The following compounds in Tables 1 and 2 were made by using procedures described in the above Schemes and Examples, and, where applicable, by making any necessary substitutions of known materials that one skilled in the art would ordinarily understand how to do.
row,EC50 [nM],SMILES
1,100 to 1000,COCC1CCCN1NC(=O)NS(=O)(=O)c1ccc(CSc2ncc(C(C)(C)c3ccc(Cl)c(OC)c3)n2-c2ccc(F)cc2)c(Cl)c1 (stereo in doubt) [3-chloro-4-({[5-{1-[4-chloro-3-(methyloxy)phenyl]-1-methylethyl}-1-(4-fluorophenyl)-1H-imidazol-2-yl]thio}methyl)-N-[({(2S)-2-[(methyloxy)methyl]pyrrolidin-1-yl}amino)carbonyl]benzenesulfonamide]
2,1000 to 10000,CNS(=O)(=O)c1ccc(C(C)(C)c2cnc(SCc3ccc(S(=O)(=O)NC(=O)NN4CCCC4)cc3Cl)n2-c2ccc(F)cc2)cc1Cl [2-chloro-4-{1-[2-({[2-chloro-4-({[(pyrrolidin-1-ylamino)carbonyl]amino}sulfonyl)phenyl]methyl}thio)-1-(4-fluorophenyl)-1H-imidazol-5-yl]-1-methylethyl}-N-methylbenzenesulfonamide]
3,1000 to 10000,"CC(C)(c1ccc(S(C)(=O)=O)cc1)c1cnc(SCc2c(F)cc(C(=O)O)cc2F)n1-c1ccc(F)cn1 [3,5-difluoro-4-({[1-(5-fluoropyridin-2-yl)-5-{1-methyl-1-[4-(methylsulfonyl)phenyl]ethyl}-1H-imidazol-2-yl]thio}methyl)benzoic acid]"
4,1000 to 10000,"CC(C)(c1ccc(S(C)(=O)=O)cc1)c1cnc(SCc2ccc(S(=O)(=O)NC(=O)NN3CCCC3)cc2Cl)n1-c1ccc(F)c(F)c1 [3-chloro-4-({[1-(3,4-difluorophenyl)-5-{1-methyl-1-[4-(methylsulfonyl)phenyl]ethyl}-1H-imidazol-2-yl]thio}methyl)-N-[(pyrrolidin-1-ylamino)carbonyl]benzenesulfonamide]"
5,1000 to 10000,Cc1cc(-n2c(C(C)(C)c3ccc(S(C)(=O)=O)cc3)cnc2SCc2ccc(S(=O)(=O)NC(=O)NN3CCCC3)cc2Cl)ccc1F [3-chloro-4-({[1-(4-fluoro-3-methylphenyl)-5-{1-methyl-1-[4-(methylsulfonyl)phenyl]ethyl}-1H-imidazol-2-yl]thio}methyl)-N-[(pyrrolidin-1-ylamino)carbonyl]benzenesulfonamide]
6,100 to 1000,COc1cc(C(C)(C)c2cnc(SCc3ccc(S(=O)(=O)NC(=O)NN4CCCC4)cc3Cl)n2-c2ccc(F)cc2)ccc1S(C)(=O)=O [3-chloro-4-({[1-(4-fluorophenyl)-5-{1-methyl-1-[3-(methyloxy)-4-(methylsulfonyl)phenyl]ethyl}-1H-imidazol-2-yl]thio}methyl)-N-[(pyrrolidin-1-ylamino)carbonyl]benzenesulfonamide]
7,1000 to 10000,CC(C)(c1ccc(F)c(C(F)F)c1)c1cnc(SCc2ccc(S(=O)(=O)NC(=O)NN3CCCC3)cc2Cl)n1-c1ccc(F)cc1 [3-chloro-4-({[5-{1-[3-(difluoromethyl)-4-fluorophenyl]-1-methylethyl}-1-(4-fluorophenyl)-1H-imidazol-2-yl]thio}methyl)-N-[(pyrrolidin-1-ylamino)carbonyl]benzenesulfonamide]
8,1000 to 10000,"COc1cc(C(C)(C)c2cnc(SCc3ccc(S(=O)(=O)NC(=O)NN4CCCC4)cc3Cl)n2-c2ncc(F)cc2F)ccc1Cl [3-chloro-4-({[5-{1-[4-chloro-3-(methyloxy)phenyl]-1-methylethyl}-1-(3,5-difluoropyridin-2-yl)-1H-imidazol-2-yl]thio}methyl)-N-[(pyrrolidin-1-ylamino)carbonyl]benzenesulfonamide]"
9,1000 to 10000,COc1cc(C(C)(C)c2cnc(SCc3ccc(S(=O)(=O)NC(=O)NN4CCCC4)cc3Cl)n2-c2cc(C)c(Cl)cn2)ccc1Cl [3-chloro-4-({[5-{1-[4-chloro-3-(methyloxy)phenyl]-1-methylethyl}-1-(5-chloro-4-methylpyridin-2-yl)-1H-imidazol-2-yl]thio}methyl)-N-[(pyrrolidin-1-ylamino)carbonyl]benzenesulfonamide]
10,100 to 1000,Cc1cc(-n2c(C(C)(C)c3ccc(F)cc3)cnc2SCc2ccc(S(=O)(=O)NC(=O)NN3CCCC3)cc2Cl)ccc1F [3-chloro-4-[({1-(4-fluoro-3-methylphenyl)-5-[1-(4-fluorophenyl)-1-methylethyl]-1H-imidazol-2-yl}thio)methyl]-N-[(pyrrolidin-1-ylamino)carbonyl]benzenesulfonamide]
11,100 to 1000,COc1cc(-n2c(C(C)(C)c3ccc(F)cc3)cnc2SCc2ccc(S(=O)(=O)NC(=O)NN3CCCC3)cc2Cl)ccc1F [3-chloro-4-[({1-[4-fluoro-3-(methyloxy)phenyl]-5-[1-(4-fluorophenyl)-1-methylethyl]-1H-imidazol-2-yl}thio)methyl]-N-[(pyrrolidin-1-ylamino)carbonyl]benzenesulfonamide]
12,1000 to 10000,"CC(C)(c1ccc(Cl)cc1)c1cnc(SCc2ccc(S(=O)(=O)NC(=O)NN3CCCC3)cc2Cl)n1-c1ccc(F)cc1F [3-chloro-4-[({5-[1-(4-chlorophenyl)-1-methylethyl]-1-(2,4-difluorophenyl)-1H-imidazol-2-yl}thio)methyl]-N-[(pyrrolidin-1-ylamino)carbonyl]benzenesulfonamide]"
